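Briefly, cells in 96-well plates were exposed to five compound concentrations for 48 h, and endpoints were estimated by linear interpolation. TGI marks complete inhibition of growth.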
What was measured:
Assay in all cases: growth of human tumour cells (NCI), 48 h
OVCAR-5 ovarian = test system: OVCAR-5 ovarian
CCRF-CEM leukemia = test system: CCRF-CEM leukemia
HL-60(TB) leukemia = test system: HL-60(TB) leukemia
UO-31 renal = test system: UO-31 renal
TK-10 renal = test system: TK-10 renal
MALME-3M melanoma = test system: MALME-3M melanoma
SK-MEL-2 melanoma = test system: SK-MEL-2 melanoma
SK-MEL-28 melanoma = test system: SK-MEL-28 melanoma
SNB-78 CNS = test system: SNB-78 CNS
DMS 114 small cell lung = test system: DMS 114 small cell lung
SF-295 CNS = test system: SF-295 CNS
M19-MEL melanoma = test system: M19-MEL melanoma
HCC-2998 colon = test system: HCC-2998 colon
KM20L2 colon = test system: KM20L2 colon
HOP-18 NSCLC = test system: HOP-18 NSCLC
SN12C renal = test system: SN12C renal
SNB-19 CNS = test system: SNB-19 CNS
A549 NSCLC = test system: A549 NSCLC
786-0 renal = test system: 786-0 renal
HCT-15 colon = test system: HCT-15 colon
SR leukemia = test system: SR leukemia
DLD-1 colon = test system: DLD-1 colon
XF 498 CNS = test system: XF 498 CNS
HT29 colon = test system: HT29 colon
UACC-257 melanoma = test system: UACC-257 melanoma
KM12 colon = test system: KM12 colon
SF-268 CNS = test system: SF-268 CNS
OVCAR-8 ovarian = test system: OVCAR-8 ovarian
SW-620 colon = test system: SW-620 colon
HCT-116 colon = test system: HCT-116 colon
A498 renal = test system: A498 renal
COLO 205 colon = test system: COLO 205 colon
MOLT-4 leukemia = test system: MOLT-4 leukemia
ACHN renal = test system: ACHN renal
NCI-H23 lung = test system: NCI-H23 lung
K-562 leukemia = test system: K-562 leukemia
RXF-631 renal = test system: RXF-631 renal
U251 CNS = test system: U251 CNS
LXFL 529 NSCLC = test system: LXFL 529 NSCLC
NCI-H460 lung = test system: NCI-H460 lung
LOX IMVI melanoma = test system: LOX IMVI melanoma
SF-539 CNS = test system: SF-539 CNS
HOP-92 NSCLC = test system: HOP-92 NSCLC
SNB-75 CNS = test system: SNB-75 CNS
SK-MEL-5 melanoma = test system: SK-MEL-5 melanoma
SK-OV-3 ovarian = test system: SK-OV-3 ovarian
M14 melanoma = test system: M14 melanoma
DMS 273 small cell lung = test system: DMS 273 small cell lung
UACC-62 melanoma = test system: UACC-62 melanoma
HOP-62 NSCLC = test system: HOP-62 NSCLC
OVCAR-4 ovarian = test system: OVCAR-4 ovarian
IGROV1 ovarian = test system: IGROV1 ovarian
RPMI-8226 leukemia = test system: RPMI-8226 leukemia
OVCAR-3 ovarian = test system: OVCAR-3 ovarian
CAKI-1 renal = test system: CAKI-1 renal
EKVX NSCLC = test system: EKVX NSCLC
NCI-H522 lung = test system: NCI-H522 lung
NCI-H226 lung = test system: NCI-H226 lung
RXF 393 renal = test system: RXF 393 renal

In the case of `O=C1C2C3C=C4c5ccccc5N(c5ccccc5)C4(C2C(=O)N1Cc1ccccc1)C1C(=O)N(Cc2ccccc2)C(=O)C31` (stereo unspecified), the TGI (OVCAR-5 ovarian) is reported as > 100 µM, the TGI (CCRF-CEM leukemia) is reported as > 100 µM and the TGI (HL-60(TB) leukemia) is reported as > 100 µM. The TGI (UO-31 renal) was > 100 µM, the TGI (TK-10 renal) was > 100 µM and the TGI (MALME-3M melanoma) was > 100 µM. For the same molecule, the TGI (SK-MEL-2 melanoma) was > 100 µM, the TGI (SK-MEL-28 melanoma) was > 100 µM and the TGI (SNB-78 CNS) was > 100 µM. For the same molecule, the TGI (DMS 114 small cell lung) was > 100 µM, the TGI (SF-295 CNS) was > 100 µM and the TGI (M19-MEL melanoma) was > 100 µM. For the same molecule, the TGI (HCC-2998 colon) was > 100 µM, the TGI (KM20L2 colon) was > 100 µM and the TGI (HOP-18 NSCLC) was > 100 µM. The TGI (SN12C renal) was > 100 µM, the TGI (SNB-19 CNS) was > 100 µM and the TGI (A549 NSCLC) was > 100 µM. The TGI (786-0 renal) was > 100 µM, the TGI (HCT-15 colon) was > 100 µM and the TGI (SR leukemia) was > 100 µM. For the same molecule, the TGI (DLD-1 colon) was > 100 µM, the TGI (XF 498 CNS) was > 100 µM and the TGI (HT29 colon) was > 100 µM. For the same molecule, the TGI (UACC-257 melanoma) was > 100 µM, the TGI (KM12 colon) was > 100 µM and the TGI (SF-268 CNS) was > 100 µM. For the same molecule, the TGI (OVCAR-8 ovarian) was > 100 µM, the TGI (SW-620 colon) was > 100 µM and the TGI (HCT-116 colon) was > 100 µM. The TGI (A498 renal) was > 100 µM, the TGI (COLO 205 colon) was > 100 µM and the TGI (MOLT-4 leukemia) was > 100 µM. The TGI (ACHN renal) was > 100 µM, the TGI (NCI-H23 lung) was > 100 µM and the TGI (K-562 leukemia) was > 100 µM. For the same molecule, the TGI (RXF-631 renal) was > 100 µM, the TGI (U251 CNS) was > 100 µM and the TGI (LXFL 529 NSCLC) was > 100 µM. The TGI (NCI-H460 lung) was > 100 µM, the TGI (LOX IMVI melanoma) was > 100 µM and the TGI (SF-539 CNS) was > 100 µM. For the same molecule, the TGI (HOP-92 NSCLC) was > 100 µM and the TGI (SNB-75 CNS) was > 100 µM.
With `CCOc1ccccc1N=Nc1ccc2oc(=O)c(C(=O)Nc3cccc(C)c3)cc2c1` the TGI (OVCAR-5 ovarian) was > 100 µM, the TGI (CCRF-CEM leukemia) was 83.8 µM and the TGI (HL-60(TB) leukemia) was 63.3 µM. The TGI (UO-31 renal) was > 100 µM, the TGI (TK-10 renal) was > 100 µM and the TGI (SK-MEL-5 melanoma) was 32.8 µM. For the same molecule, the TGI (MALME-3M melanoma) was > 100 µM, the TGI (SK-MEL-2 melanoma) was 46.9 µM and the TGI (SK-MEL-28 melanoma) was 72.3 µM. The TGI (SNB-78 CNS) was 91.3 µM, the TGI (DMS 114 small cell lung) was 63.4 µM and the TGI (SF-295 CNS) was > 100 µM. The TGI (M19-MEL melanoma) was 93.4 µM, the TGI (SK-OV-3 ovarian) was > 100 µM and the TGI (HCC-2998 colon) was 96.9 µM. The TGI (KM20L2 colon) was > 100 µM, the TGI (SN12C renal) was > 100 µM and the TGI (SNB-19 CNS) was 99.4 µM. For the same molecule, the TGI (M14 melanoma) was 59.5 µM, the TGI (DMS 273 small cell lung) was > 100 µM and the TGI (A549 NSCLC) was > 100 µM. For the same molecule, the TGI (786-0 renal) was > 100 µM, the TGI (HCT-15 colon) was > 100 µM and the TGI (DLD-1 colon) was > 100 µM. The TGI (UACC-62 melanoma) was > 100 µM, the TGI (XF 498 CNS) was > 100 µM and the TGI (HT29 colon) was > 100 µM. For the same molecule, the TGI (UACC-257 melanoma) was > 100 µM, the TGI (KM12 colon) was > 100 µM and the TGI (HOP-62 NSCLC) was > 100 µM. The TGI (SF-268 CNS) was > 100 µM, the TGI (OVCAR-8 ovarian) was 86 µM and the TGI (OVCAR-4 ovarian) was 79.4 µM. For the same molecule, the TGI (SW-620 colon) was > 100 µM, the TGI (HCT-116 colon) was 51.7 µM and the TGI (IGROV1 ovarian) was > 100 µM. For the same molecule, the TGI (A498 renal) was > 100 µM, the TGI (COLO 205 colon) was 71.8 µM and the TGI (MOLT-4 leukemia) was 80.2 µM. The TGI (NCI-H23 lung) was 94.7 µM, the TGI (RPMI-8226 leukemia) was > 100 µM and the TGI (K-562 leukemia) was 88 µM. For the same molecule, the TGI (RXF-631 renal) was > 100 µM, the TGI (OVCAR-3 ovarian) was 62.4 µM and the TGI (U251 CNS) was 81.2 µM. The TGI (CAKI-1 renal) was > 100 µM, the TGI (EKVX NSCLC) was 95.2 µM and the TGI (LXFL 529 NSCLC) was > 100 µM. It also gave a TGI (NCI-H522 lung) of 57.1 µM, a TGI (LOX IMVI melanoma) of 61.6 µM and a TGI (SF-539 CNS) of 91.1 µM. For the same molecule, the TGI (SNB-75 CNS) was > 100 µM.
In the case of `COC1(OC)C2(Cl)C(Cl)=C(Cl)C1(Cl)C1C=CC=CC12` (stereo unspecified), the TGI (OVCAR-5 ovarian) is reported as > 100 µM, the TGI (HL-60(TB) leukemia) is reported as > 100 µM and the TGI (UO-31 renal) is reported as > 100 µM. The TGI (TK-10 renal) was > 100 µM, the TGI (SK-MEL-5 melanoma) was > 100 µM and the TGI (MALME-3M melanoma) was > 100 µM. The TGI (SK-MEL-2 melanoma) was 63 µM, the TGI (SK-MEL-28 melanoma) was > 100 µM and the TGI (SNB-78 CNS) was > 100 µM. For the same molecule, the TGI (DMS 114 small cell lung) was > 100 µM, the TGI (SF-295 CNS) was > 100 µM and the TGI (M19-MEL melanoma) was > 100 µM. For the same molecule, the TGI (SK-OV-3 ovarian) was > 100 µM, the TGI (HCC-2998 colon) was > 100 µM and the TGI (KM20L2 colon) was > 100 µM. The TGI (SN12C renal) was > 100 µM, the TGI (SNB-19 CNS) was > 100 µM and the TGI (M14 melanoma) was > 100 µM. The TGI (DMS 273 small cell lung) was > 100 µM, the TGI (A549 NSCLC) was > 100 µM and the TGI (786-0 renal) was > 100 µM. For the same molecule, the TGI (HCT-15 colon) was > 100 µM, the TGI (SR leukemia) was > 100 µM and the TGI (DLD-1 colon) was > 100 µM. The TGI (UACC-62 melanoma) was > 100 µM, the TGI (XF 498 CNS) was > 100 µM and the TGI (HT29 colon) was > 100 µM. For the same molecule, the TGI (UACC-257 melanoma) was > 100 µM, the TGI (KM12 colon) was > 100 µM and the TGI (HOP-62 NSCLC) was > 100 µM. The TGI (SF-268 CNS) was > 100 µM, the TGI (OVCAR-8 ovarian) was > 100 µM and the TGI (OVCAR-4 ovarian) was > 100 µM. The TGI (SW-620 colon) was > 100 µM, the TGI (HCT-116 colon) was > 100 µM and the TGI (IGROV1 ovarian) was > 100 µM. The TGI (COLO 205 colon) was > 100 µM, the TGI (ACHN renal) was > 100 µM and the TGI (NCI-H23 lung) was > 100 µM. For the same molecule, the TGI (RPMI-8226 leukemia) was > 100 µM, the TGI (K-562 leukemia) was > 100 µM and the TGI (RXF-631 renal) was 39.9 µM. The TGI (OVCAR-3 ovarian) was > 100 µM, the TGI (U251 CNS) was > 100 µM and the TGI (CAKI-1 renal) was > 100 µM. For the same molecule, the TGI (EKVX NSCLC) was > 100 µM, the TGI (LXFL 529 NSCLC) was > 100 µM and the TGI (NCI-H522 lung) was > 100 µM. For the same molecule, the TGI (NCI-H460 lung) was > 100 µM, the TGI (LOX IMVI melanoma) was > 100 µM and the TGI (SF-539 CNS) was > 100 µM. The TGI (NCI-H226 lung) was > 100 µM, the TGI (RXF 393 renal) was > 100 µM and the TGI (HOP-92 NSCLC) was > 100 µM. The TGI (SNB-75 CNS) was > 100 µM.
